Test results: PubChem BioAssay (NCI)
“And” between values parts separate entries of the source, which are not always exact repeats. Equal entries are not always repeated.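 1) Cells in 96-well plates. 2) Compound, 48 h, 5 concentrations. 3) Linear interpolation between surrounding doses. 4) Unreached endpoint = highest concentration. At the GI50, growth is halved. TGI is the concentration that stops growth completely.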

Assays:
Assay in all cases: inhibition of tumour cell growth, NCI panel, 48 h
[1] = system: CAKI-1 renal
[2] = system: NCI-H460 lung
[3] = system: SNB-75 CNS
[4] = system: TK-10 renal
[5] = system: SK-MEL-2 melanoma
[6] = system: IGROV1 ovarian
[7] = system: T-47D breast
[8] = system: MDA-N
[9] = system: OVCAR-4 ovarian
[10] = system: RXF 393 renal
[11] = system: HS 578T breast

Row | Compound | TGI [1] | TGI [2] | TGI [3] | GI50 [4] | TGI [4] | TGI [5] | TGI [6] | TGI [7] | TGI [8] | TGI [9] | TGI [10] | TGI [11]
1 | CCOC(=O)N1CCC(N[C@@H]2c3cc4c(cc3C(c3cc(OC)c(O)c(OC)c3)C3C(=O)OC[C@@H]32)OCO4)CC1 (some centres not stated) | 2.35 µM and 2.26 µM | 0.887 µM and 2.88 µM | 15.2 µM and 24.8 µM | 2.09 µM and 4.27 µM | 11.9 µM and 9.5 µM | 14.9 µM and 11.3 µM | 13.6 µM and 9.21 µM |  |  |  |  | 
2 | COc1ccc(C2c3cn[nH]c3CC3CCCCC32)cc1 (configuration not stated) | 27.3 µM | 30.8 µM | 27.2 µM |  | 37.1 µM | 32.5 µM | 26.6 µM | 19 µM | 27.9 µM | 43.5 µM |  | 
3 | O=C1OCC/C1=N/O |  | > 100 µM | > 100 µM |  | > 100 µM | > 100 µM | > 100 µM |  |  | > 100 µM | > 100 µM | 
4 | CCCCCC#CCOC(=O)C(=[N+]=[N-])P(=O)(c1ccccc1)c1ccccc1 |  | > 10 µM | > 10 µM |  | > 10 µM |  | > 10 µM | > 10 µM | > 10 µM |  | > 10 µM | > 10 µM
5 | C=CCn1c(=O)c(C(=O)Nc2nc(C34CC5CC(CC(C5)C3)C4)cs2)c(O)c2ccccc21 | > 100 µM | > 100 µM | > 100 µM |  | > 100 µM |  | > 100 µM |  | > 100 µM | > 100 µM | > 100 µM | > 100 µM
6 | COc1cc(OC)cc(C(=O)CC(=O)c2cc(OC)cc(OC)c2)c1 |  | > 100 µM | > 100 µM |  | > 100 µM |  | > 100 µM | > 100 µM | > 100 µM |  | > 100 µM | > 100 µM
7 | COc1cc(O)c2c(c1)C(=O)c1cc3c(c(O)c1C2=O)C(OC1OC(C)C(OC)C(O)C1OC)C(OC)C(C)(O)C3=O (configuration not stated) | 11 µM | 10.8 µM | 16 µM |  | 23.7 µM | 23.5 µM | 6.5 µM |  |  | 15.5 µM |  | 33.3 µM
8 | CC(O)CNC(=O)C(C)Oc1ccc(OCC2CCCCC2)cc1 (configuration not stated) |  | > 100 µM | > 100 µM |  | > 100 µM | > 100 µM | > 100 µM |  |  | > 100 µM |  | 
9 | O=P(O)(O)C(N=C(Nc1ccccc1)Nc1ccccc1)P(=O)(O)O | > 100 µM | > 100 µM |  |  | > 100 µM |  | > 100 µM |  | > 100 µM |  | > 100 µM | > 100 µM
10 | C=C1CC(C#N)(C#N)[C@H]2C3CCCC3C[C@@H]12 (some centres not stated) (tested in a mixture with another compound) |  |  |  |  | > 100 µM |  | > 100 µM | > 100 µM |  |  | 41.7 µM | > 100 µM
11 | OC[C@H]1O[C@@H]2O[C@@](COCc3ccccc3)([C@H](OCc3ccccc3)[C@H]2O)[C@@H]1OCc1ccccc1 | 29.8 µM | 34.2 µM | 29.7 µM |  | 33.3 µM | 32 µM | 27 µM | 33 µM |  | 10.8 µM |  | 31.7 µM
12 | O=C1c2ccccc2C(=O)N1n1c(Cc2ccc([N+](=O)[O-])cc2)n[nH]c1=O | > 100 µM | > 100 µM | > 100 µM |  | > 100 µM | > 100 µM | > 100 µM | > 100 µM | > 100 µM |  | > 100 µM | 
13 | COc1cc(OC)c2c(=O)cc(-c3ccc(OC)c(OC)c3OC)oc2c1 | > 100 µM |  | 45.3 µM |  | > 100 µM | > 100 µM | > 100 µM |  |  | > 100 µM | > 100 µM | 
14 | COc1ccc(CCN(C)C2CCC(C#N)(c3ccc(OC)c(OC)c3)CC2)cc1OC (configuration not stated) |  | > 100 µM | > 100 µM |  | > 100 µM | > 100 µM | > 100 µM |  |  | > 100 µM | > 100 µM | 
15 | CC1=Cc2cccc(C)c2C(=O)C1=O | 32.5 µM | 41.9 µM | 29.9 µM |  | 4.75 µM | 31.9 µM | 29.2 µM |  |  | 10.1 µM | 8.85 µM | 
16 | Cc1ccc(/C=N\NC2c3cc(Cl)ccc3Nc3nc(=O)[nH]c(C)c32)cc1 (configuration not stated) |  | > 100 µM | > 100 µM |  | > 100 µM | > 100 µM | > 100 µM |  |  |  | > 100 µM | 
17 | COC(=O)/C(=C/c1ccc(OC)cc1)C(C(=O)O)=C1CCCC1 | > 100 µM | > 100 µM | > 100 µM |  | > 100 µM | > 100 µM | > 100 µM |  |  | > 100 µM | > 100 µM | 
18 | S=c1c2cn[nH]c2nc2scc(-c3ccc(Cl)cc3)n12 | 24.6 µM | 57.5 µM | 28.2 µM |  | 31.8 µM | 46.6 µM |  |  | 26.2 µM | > 100 µM | 17.5 µM | 38.8 µM
19 | COc1ccc(-c2nc(SCC(=O)NNC(=S)Nc3ccccc3)[nH]c2-c2ccc(OC)cc2)cc1 | > 100 µM | 32.2 µM | > 100 µM |  | > 100 µM | 34.7 µM | > 100 µM | 85 µM | 50.3 µM | > 100 µM | 43.9 µM | 
